Assay results as given in BigSolDB 2.1.

Work on `CO/C=C(/C(=O)OC)c1ccccc1Oc1cc(Oc2ccccc2C#N)ncn1` yielded a solubility (mole fraction) (in ethanol, 288.15 K) of 0.000747, a solubility (mole fraction) (in ethanol, 293.15 K) of 0.000923 and a solubility (mole fraction) (in ethanol, 298.15 K) of 0.00118. The solubility (mole fraction) (in ethanol, 303.15 K) was 0.00171, the solubility (mole fraction) (in ethanol, 308.15 K) was 0.0022 and the solubility (mole fraction) (in ethanol, 313.15 K) was 0.00296. For the same compound, the solubility (mole fraction) (in ethanol, 318.15 K) was 0.00422, the solubility (mole fraction) (in ethanol, 323.15 K) was 0.0056 and the solubility (mole fraction) (in ethanol, 328.15 K) was 0.00786. The solubility (mole fraction) (in ethyl acetate, 288.15 K) was 0.0246, the solubility (mole fraction) (in ethyl acetate, 293.15 K) was 0.0283 and the solubility (mole fraction) (in ethyl acetate, 298.15 K) was 0.0319. It also gave a solubility (mole fraction) (in ethyl acetate, 303.15 K) of 0.0415, a solubility (mole fraction) (in ethyl acetate, 308.15 K) of 0.0473 and a solubility (mole fraction) (in ethyl acetate, 313.15 K) of 0.059. The solubility (mole fraction) (in ethyl acetate, 318.15 K) was 0.0756, the solubility (mole fraction) (in ethyl acetate, 323.15 K) was 0.0879 and the solubility (mole fraction) (in ethyl acetate, 328.15 K) was 0.108. It also gave a solubility (mole fraction) (in isobutanol, 288.15 K) of 0.000441, a solubility (mole fraction) (in isobutanol, 293.15 K) of 0.000628 and a solubility (mole fraction) (in isobutanol, 298.15 K) of 0.00084. For the same compound, the solubility (mole fraction) (in isobutanol, 303.15 K) was 0.00129, the solubility (mole fraction) (in isobutanol, 308.15 K) was 0.0017 and the solubility (mole fraction) (in isobutanol, 313.15 K) was 0.00231. The solubility (mole fraction) (in isobutanol, 318.15 K) was 0.00324, the solubility (mole fraction) (in isobutanol, 323.15 K) was 0.00441 and the solubility (mole fraction) (in isobutanol, 328.15 K) was 0.00571. For the same compound, the solubility (mole fraction) (in isopropanol, 288.15 K) was 0.000339, the solubility (mole fraction) (in isopropanol, 293.15 K) was 0.000476 and the solubility (mole fraction) (in isopropanol, 298.15 K) was 0.000649. It also gave a solubility (mole fraction) (in isopropanol, 303.15 K) of 0.00102, a solubility (mole fraction) (in isopropanol, 308.15 K) of 0.00134 and a solubility (mole fraction) (in isopropanol, 313.15 K) of 0.00183. For the same compound, the solubility (mole fraction) (in isopropanol, 318.15 K) was 0.0026, the solubility (mole fraction) (in isopropanol, 323.15 K) was 0.00358 and the solubility (mole fraction) (in isopropanol, 328.15 K) was 0.00452. It also gave a solubility (mole fraction) (in methanol, 288.15 K) of 0.00135, a solubility (mole fraction) (in methanol, 293.15 K) of 0.00165 and a solubility (mole fraction) (in methanol, 298.15 K) of 0.00205. For the same compound, the solubility (mole fraction) (in methanol, 303.15 K) was 0.0027, the solubility (mole fraction) (in methanol, 308.15 K) was 0.00368 and the solubility (mole fraction) (in methanol, 313.15 K) was 0.00497. The solubility (mole fraction) (in methanol, 318.15 K) was 0.00683, the solubility (mole fraction) (in methanol, 323.15 K) was 0.0096 and the solubility (mole fraction) (in methanol, 328.15 K) was 0.0144. It also gave a solubility (mole fraction) (in n-butanol, 288.15 K) of 0.000514, a solubility (mole fraction) (in n-butanol, 293.15 K) of 0.000733 and a solubility (mole fraction) (in n-butanol, 298.15 K) of 0.000955. For the same compound, the solubility (mole fraction) (in n-butanol, 303.15 K) was 0.00149, the solubility (mole fraction) (in n-butanol, 308.15 K) was 0.00185 and the solubility (mole fraction) (in n-butanol, 313.15 K) was 0.00246. It also gave a solubility (mole fraction) (in n-butanol, 318.15 K) of 0.0034, a solubility (mole fraction) (in n-butanol, 323.15 K) of 0.00476 and a solubility (mole fraction) (in n-butanol, 328.15 K) of 0.00635. The solubility (mole fraction) (in n-propanol, 288.15 K) was 0.000654, the solubility (mole fraction) (in n-propanol, 293.15 K) was 0.000829 and the solubility (mole fraction) (in n-propanol, 298.15 K) was 0.00108. It also gave a solubility (mole fraction) (in n-propanol, 303.15 K) of 0.00162, a solubility (mole fraction) (in n-propanol, 308.15 K) of 0.00207 and a solubility (mole fraction) (in n-propanol, 313.15 K) of 0.00277. It also gave a solubility (mole fraction) (in n-propanol, 318.15 K) of 0.00387, a solubility (mole fraction) (in n-propanol, 323.15 K) of 0.00527 and a solubility (mole fraction) (in n-propanol, 328.15 K) of 0.0072.
